The nature of data set [1]: In vitro release of NMP, USP II paddle method in 0.5% SDS solution. The data set is classed as physicochemical. The following applies: 250 mL, 37 °C, 50 rpm, 10 mg NMP. The method, then: The in vitro release behavior of samples was assessed by a USP II paddle method on a dissolution apparatus (ZRS-8G, Huanghai Medicament Test Instrument, China). Prewarmed medium of 0.5% (w/v) sodium dodecyl sulfate (SDS) solution (250 mL, 37 °C) was added to the dissolution cup with a stirrer rotation speed of 50 rpm. 10 mg NMP, NMP/MCM41 and NMP/PEIs@TA-CMSs samples containing 10 mg of NMP were suspended in the release medium. 5 mL of aliquots were collected and replaced by an equal volume of fresh isothermal supplement at predetermined time intervals, After filtering through a 0.22 μm membrane filter, the drug release amounts were tested by UV spectroscopy (UV-1750, Shimadzu, Japan) at 238 nm. All in vitro release studies were repeated three times.

For data set [2] the following is noted: background statement, no reference given; cited from earlier work.
Data set [3] is described as follows: In vivo pharmacokinetics after oral administration. More on the design: species or system Sprague-Dawley rats. The note with it: rats. The method, then: Twelve male Sprague-Dawley rats (SD rats, 180–220 g body weight) were randomly divided into three groups (n = 4): NMP group, NMP/PEIs@TA-CMS group and NMP/MCM41 group. Prior to the experiment, animals were fasted overnight with free access to water. The animals were orally administered the water suspensions of NMP, NMP/PEIs@TA-CMS and NMP/MCM4 with a drug dose of 2.5 mg. At appropriate sampling times, aliquot blood sample (about 0.6 mL) was withdrawn via the retro-orbital venous sinus, centrifuged to separate the plasma, and stored at −20 °C.
In the pretreatment procedure, 20 μL of internal standard solution (nitrendipine, 20 μg/mL) was added into 200 μL plasma sample and vortexed for 1 min. Afterwards, 100 μL NaOH (0.01 mol/L) was uniformly mixed with the system and vortexed for 1 min. The drug was extracted by 2.5 mL diethyl ether, vortexed for 5 min, and centrifugated for 12 min to separate the organic layer (2 mL). The organic layer (2 mL) was then transferred to a new tube and evaporated to dryness under a gentle stream of N2. After reconstituting with 100 μL mobile phase, the 20 μL sample was analyzed by high performance liquid chromatography (HPLC) method. The separation procedure was performed on a Kromasil ODS-2C18 column (Thermo ODS-2 Hypersil, 250 mm × 4.6 mm, […], UK) equipped with a JanuSep C18 pre-column (Liaoning, China), and the column temperature was kept at 25 °C. The UV detector was set at 240 nm. The mixture of methanol, acetonitrile and water (3:4:3, v/v/v) was selected as the optimized mobile phase with a flow rate of 1 mL/min. The NMP content was calculated according to internal standard method, and the main pharmacokinetic parameters were obtained using the software of DAS 2.0.

Data set [4] has as its system cerebral anoxia of mice induced by NaNO2. The data set is described as follows: In vivo pharmacodynamics: survival time of mice on cerebral anoxia induced by NaNO2. Details: species or system Kunming mice. The following applies: oral dose 0.5 mg NMP (middle dose); NaNO2 i.p. 90 min post administration. The method, then: The pharmacodynamics study was performed to further evaluating the effect of PEIs@TA-CMS on improving the oral adsorption of NMP. 36 SPF-grade Kunming mice (18–22 g body weight) were assigned into six groups, randomly (n = 6): Normal saline group, NMP group, NMP/PEIs@TA-CMS (low dose) group, NMP/PEIs@TA-CMS (middle dose) group, NMP/PEIs@TA-CMS (high dose) group and NMP/MCM41 group. Before dosing, animals were fasted overnight with free access to water. Animals in the Normal Saline group were received oral treatment of 0.5 mL normal saline, and were considered as negative control. While for NMP group which severed as positive control, 0.5 mg pure NMP was suspended in 0.5 mL normal saline and was imposed to animals. Normal saline suspensions of NMP/PEIs@TA-CMS and NMP/MCM41 containing 0.5 mg NMP were also oral administrated to mice. Meanwhile, half and twice of the dose in NMP/PEIs@TA-CMS (middle dose) group, which were respectively in doses equivalent to 0.25 mg and 1 mg NMP, were given to mice to further study the influence of dose. […] Then the clinic manifestation and survival time of mice was recorded to study the protective effect of NMP formulations on mice cerebral anoxia.

Read-outs that look alike come from different tables or passages of the source.

Consider `COCCOC(=O)C1=C(C)NC(C)=C(C(=O)OC(C)C)C1c1cccc([N+](=O)[O-])c1` (stereo not drawn) [NMP, nimodipine], for which, in data set [1], the “drug release amount within 60 min” value is listed as 29.24% and the “drug release amount within 240 min” value is given as 41.32%. The bioavailability result in data set [2] was “lower than 13%”. In data set [3] (male, Sprague-Dawley, rat, plasma, drug dose 2.5 mg), this molecule showed a half-life of 10.9 ± 1.13 h. In data set [3] (male, Sprague-Dawley, rat, plasma, drug dose 2.5 mg, read-out: MRT0-∞), the MRT inf was 8.84 ± 1.73 h. In addition, in data set [3] (male, Sprague-Dawley, rat, plasma, drug dose 2.5 mg, read-out: maximum concentration (Cmax)), the Cmax was 100 ng/mL. The same molecule gave an AUC(0-inf) in data set [3] (male, Sprague-Dawley, rat, plasma, drug dose 2.5 mg, water suspension) of 1190 ± 160 ng·h/mL. Besides, in data set [3] (drug dose 2.5 mg), the Cmax amounted to 100 ± 20 ng/mL and the Tmax was determined as 0.5 ± 0 h. The Relative bioavailability in data set [3] (drug dose 2.5 mg, relative to pure NMP) is given as 100%. Besides, in data set [3] (post administration, suggests enterohepatic circulation), the “time of second plasma concentration peak (double peaks)” value is reported as 8 h. For the same molecule, the “survival time of mice after injection of NaNO2” value in data set [4] worked out at 14.33 min.

(Values after publication PMC8118497, “Facile synthesis of PEI-based crystalline templated mesoporous silica with molecular chirality for improved oral delivery of the poorly water-soluble drug” (Drug Delivery, 2021).)
